# Experimental data as given in ChEMBL document CHEMBL1649488, “In vitro activities of echinocandins against Candida krusei determined by three methods: MIC and minimal fungicidal concentration measurements and time-kill studies” (2009).
# Starred links: 1 amine or outer side, 2 acyl side, 3 side chain; linkers in the order of their positions; H or OH if unused. Positions of bridges follow the written chain, without caps; N, C: chain ends. Non-standard residues stand in square brackets, D forms with d. Residues, ends and D or L forms follow the SMILES beside them. *: point of attachment. pTerphenylCO(4''-OnC5H11) = CCCCCOc1ccc(-c2ccc(-c3ccc(C(=O)*)cc3)cc2)cc1; Orn(4R-OH,5R-OH) = O=C([C@H](C[C@@H](O)[C@@H](O)N[*:3])N[*:1])[*:2]; hTyr(3S-OH,4S-OH) = N[C@H](C(=O)O)[C@H](O)[C@@H](O)c1ccc(O)cc1; Pro(3S-OH,4S-Me) = C[C@H]1CN[C@H](C(=O)O)[C@H]1O; Hyp = O=C(O)[C@@H]1C[C@@H](O)CN1
# Key:
# Type in all cases: functional
# [1] = test system: Pichia kudriavzevii; assay: Antifungal activity against Candida krusei ATCC 6258 bloodstream forms assessed as minimum concentration producing >= 100% growth reduction after 24 hrs by M27-A3 microdilution method; conditions: ATCC 6258, 24 h
# [2] = test system: Pichia kudriavzevii; assay: Fungicidal activity against Candida krusei ATCC 6258 bloodstream forms after 48 hrs by M27-A3 microdilution method
# [3] = test system: Pichia kudriavzevii; assay: Antifungal activity against Candida krusei ATCC 6258 bloodstream forms assessed as minimum concentration producing >= 50% growth reduction after 24 hrs by M27-A3 microdilution method; conditions: ATCC 6258, 24 h
# [4] = test system: Pichia kudriavzevii; assay: Antifungal activity against Candida krusei CK1 bloodstream forms after 24 hrs by time-kill analysis; conditions: CK1, 24 h
# [5] = test system: Pichia kudriavzevii; assay: Fungicidal activity against Candida krusei CK1 bloodstream forms after 24 hrs by time-kill analysis; conditions: CK1, 24 h
# [6] = test system: Pichia kudriavzevii; assay: Antifungal activity against Candida krusei CK2 bloodstream forms after 24 hrs by time-kill analysis; conditions: CK2, 24 h
# [7] = test system: Pichia kudriavzevii; assay: Fungicidal activity against Candida krusei CK2 bloodstream forms after 24 hrs by time-kill analysis; conditions: CK2, 24 h
# [8] = test system: Pichia kudriavzevii; assay: Antifungal activity against Candida krusei CK6 bloodstream forms after 24 hrs by time-kill analysis; conditions: CK6, 24 h
# [9] = test system: Pichia kudriavzevii; assay: Fungicidal activity against Candida krusei CK6 bloodstream forms after 24 hrs by time-kill analysis; conditions: CK6, 24 h
# [10] = test system: Pichia kudriavzevii; assay: Antifungal activity against Candida krusei CK18 bloodstream forms after 24 hrs by time-kill analysis; conditions: CK18, 24 h
# [11] = test system: Pichia kudriavzevii; assay: Fungicidal activity against Candida krusei CK18 bloodstream forms after 24 hrs by time-kill analysis; conditions: CK18, 24 h
# [12] = test system: Pichia kudriavzevii; assay: Antifungal activity against Candida krusei EU123 bloodstream forms after 24 hrs by time-kill analysis; conditions: EU123, 24 h
# [13] = test system: Pichia kudriavzevii; assay: Fungicidal activity against Candida krusei EU123 bloodstream forms after 24 hrs by time-kill analysis; conditions: EU123, 24 h
# [14] = test system: Pichia kudriavzevii; assay: Antifungal activity against Candida krusei EU220 bloodstream forms after 24 hrs by time-kill analysis; conditions: EU220, 24 h
# [15] = test system: Pichia kudriavzevii; assay: Fungicidal activity against Candida krusei EU220 bloodstream forms after 24 hrs by time-kill analysis; conditions: EU220, 24 h
# [16] = test system: Pichia kudriavzevii; assay: Antifungal activity against Candida krusei CY118 bloodstream forms after 24 hrs by time-kill analysis; conditions: CY118, 24 h
# [17] = test system: Pichia kudriavzevii; assay: Fungicidal activity against Candida krusei CY118 bloodstream forms after 24 hrs by time-kill analysis; conditions: CY118, 24 h
# [18] = test system: Pichia kudriavzevii; assay: Antifungal activity against Candida krusei ATCC 6258 bloodstream forms after 24 hrs by time-kill analysis; conditions: ATCC 6258, 24 h
# [19] = test system: Pichia kudriavzevii; assay: Fungicidal activity against Candida krusei ATCC 6258 bloodstream forms after 24 hrs by time-kill analysis; conditions: ATCC 6258, 24 h
# [20] = test system: Pichia kudriavzevii; assay: Antifungal activity against Candida krusei ATCC 6258 bloodstream forms assessed as time to achieve 50% fungal growth reduction at 0.12 mg/L by time-kill analysis
# [21] = test system: Pichia kudriavzevii; assay: Antifungal activity against Candida krusei ATCC 6258 bloodstream forms assessed as time to achieve 90% fungal growth reduction at 0.12 mg/L by time-kill analysis
# [22] = test system: Pichia kudriavzevii; assay: Antifungal activity against Candida krusei ATCC 6258 bloodstream forms assessed as time to achieve 99% fungal growth reduction at 0.12 mg/L by time-kill analysis
# [23] = test system: Pichia kudriavzevii; assay: Antifungal activity against Candida krusei ATCC 6258 bloodstream forms assessed as time to achieve 99.9% fungal growth reduction at 0.12 mg/L by time-kill analysis
# [24] = test system: Pichia kudriavzevii; assay: Antifungal activity against Candida krusei ATCC 6258 bloodstream forms assessed as time to achieve 50% fungal growth reduction at 0.5 mg/L by time-kill analysis
# [25] = test system: Pichia kudriavzevii; assay: Antifungal activity against Candida krusei ATCC 6258 bloodstream forms assessed as time to achieve 90% fungal growth reduction at 0.5 mg/L by time-kill analysis
# [26] = test system: Pichia kudriavzevii; assay: Antifungal activity against Candida krusei ATCC 6258 bloodstream forms assessed as time to achieve 99% fungal growth reduction at 0.5 mg/L by time-kill analysis
# [27] = test system: Pichia kudriavzevii; assay: Antifungal activity against Candida krusei ATCC 6258 bloodstream forms assessed as time to achieve 99.9% fungal growth reduction at 0.5 mg/L by time-kill analysis
# [28] = test system: Pichia kudriavzevii; assay: Antifungal activity against Candida krusei ATCC 6258 bloodstream forms assessed as time to achieve 50% fungal growth reduction at 2 mg/L by time-kill analysis
# [29] = test system: Pichia kudriavzevii; assay: Antifungal activity against Candida krusei ATCC 6258 bloodstream forms assessed as time to achieve 90% fungal growth reduction at 2 mg/L by time-kill analysis
# [30] = test system: Pichia kudriavzevii; assay: Antifungal activity against Candida krusei ATCC 6258 bloodstream forms assessed as time to achieve 99% fungal growth reduction at 2 mg/L by time-kill analysis
# [31] = test system: Pichia kudriavzevii; assay: Antifungal activity against Candida krusei ATCC 6258 bloodstream forms assessed as time to achieve 99.9% fungal growth reduction at 2 mg/L by time-kill analysis
# [32] = test system: Pichia kudriavzevii; assay: Antifungal activity against Candida krusei ATCC 6258 bloodstream forms assessed as time to achieve 50% fungal growth reduction at 8 mg/L by time-kill analysis
# [33] = test system: Pichia kudriavzevii; assay: Antifungal activity against Candida krusei ATCC 6258 bloodstream forms assessed as time to achieve 90% fungal growth reduction at 8 mg/L by time-kill analysis
# [34] = test system: Pichia kudriavzevii; assay: Antifungal activity against Candida krusei ATCC 6258 bloodstream forms assessed as time to achieve 99% fungal growth reduction at 8 mg/L by time-kill analysis
# [35] = test system: Pichia kudriavzevii; assay: Antifungal activity against Candida krusei ATCC 6258 bloodstream forms assessed as time to achieve 99.9% fungal growth reduction at 8 mg/L by time-kill analysis
# [36] = test system: Pichia kudriavzevii; assay: Antifungal activity against Candida krusei ATCC 6258 bloodstream forms assessed as minimum concentration producing >= 50% growth reduction after 48 hrs by M27-A3 microdilution method; conditions: ATCC 6258, 48 h
# [37] = test system: Pichia kudriavzevii; assay: Antifungal activity against Candida krusei ATCC 6258 bloodstream forms assessed as minimum concentration producing >= 100% growth reduction after 48 hrs by M27-A3 microdilution method; conditions: ATCC 6258, 48 h
smiles,measurement,setting,value
"CCCCCOc1ccc(-c2ccc(-c3ccc(C(=O)N[C@H]4C[C@@H](O)[C@@H](O)NC(=O)[C@@H]5[C@@H](O)[C@@H](C)CN5C(=O)[C@H]([C@@H](C)O)NC(=O)[C@H]([C@H](O)[C@@H](O)c5ccc(O)cc5)NC(=O)[C@@H]5C[C@@H](O)CN5C(=O)[C@H]([C@@H](C)O)NC4=O)cc3)cc2)cc1 [ANIDULAFUNGIN] ({pTerphenylCO(4''-OnC5H11)}-[Orn(4R-OH,5R-OH)]T[Hyp][hTyr(3S-OH,4S-OH)]T[Pro(3S-OH,4S-Me)]; lactam 1-C)",MIC50,[1],0.12 µg/mL
same,MIC90,[1],0.25 µg/mL
same,MFC50,[2],0.25 µg/mL
same,MFC90,[2],0.5 µg/mL
same,MFC,"[2]; Pichia kudriavzevii, ATCC 6258, 48 h",0.12 µg/mL
same,MIC50,[3],0.12 µg/mL
same,MIC90,[3],0.12 µg/mL
same,MIC,[4],0.12 µg/mL
same,MFC,[5],0.5 µg/mL
same,MIC,[6],0.06 µg/mL
same,MFC,[7],0.5 µg/mL
same,MIC,[8],0.12 µg/mL
same,MFC,[9],0.25 µg/mL
same,MIC,[10],0.12 µg/mL
same,MFC,[11],0.5 µg/mL
same,MIC,[12],0.12 µg/mL
same,MFC,[13],0.5 µg/mL
same,MIC,[14],0.12 µg/mL
same,MFC,[15],0.12 µg/mL
same,MIC,[16],0.5 µg/mL
same,MFC,[17],8 µg/mL
same,MIC,[18],0.03 µg/mL
same,MFC,[19],0.25 µg/mL
same,Time,[20],7.7 h
same,Time,[21],25.5 h
same,Time,[22],>48 h
same,Time,[23],>48 h
same,Time,[24],6.7 h
same,Time,[25],22.4 h
same,Time,[26],>48 h
same,Time,[27],>48 h
same,Time,[28],1.9 h
same,Time,[29],6.4 h
same,Time,[30],12.7 h
same,Time,[31],19.1 h
same,Time,[32],2.1 h
same,Time,[33],6.9 h
same,Time,[34],13.8 h
same,Time,[35],20.68 h
same,MIC50,[36],0.12 µg/mL
same,MIC90,[36],0.25 µg/mL
same,MIC50,[37],0.25 µg/mL
same,MIC90,[37],0.5 µg/mL
